1 compound from ChEMBL document CHEMBL2010797, “Exploring aigialomycin d and its analogues as protein kinase inhibitors for cancer targets” (ACS Med Chem Lett, 2011) can be followed below.

The target in this assay is T1, Protein kinase C epsilon type (Homo sapiens, UniProt Q02156).
T1 sequence (Q02156 whole entry): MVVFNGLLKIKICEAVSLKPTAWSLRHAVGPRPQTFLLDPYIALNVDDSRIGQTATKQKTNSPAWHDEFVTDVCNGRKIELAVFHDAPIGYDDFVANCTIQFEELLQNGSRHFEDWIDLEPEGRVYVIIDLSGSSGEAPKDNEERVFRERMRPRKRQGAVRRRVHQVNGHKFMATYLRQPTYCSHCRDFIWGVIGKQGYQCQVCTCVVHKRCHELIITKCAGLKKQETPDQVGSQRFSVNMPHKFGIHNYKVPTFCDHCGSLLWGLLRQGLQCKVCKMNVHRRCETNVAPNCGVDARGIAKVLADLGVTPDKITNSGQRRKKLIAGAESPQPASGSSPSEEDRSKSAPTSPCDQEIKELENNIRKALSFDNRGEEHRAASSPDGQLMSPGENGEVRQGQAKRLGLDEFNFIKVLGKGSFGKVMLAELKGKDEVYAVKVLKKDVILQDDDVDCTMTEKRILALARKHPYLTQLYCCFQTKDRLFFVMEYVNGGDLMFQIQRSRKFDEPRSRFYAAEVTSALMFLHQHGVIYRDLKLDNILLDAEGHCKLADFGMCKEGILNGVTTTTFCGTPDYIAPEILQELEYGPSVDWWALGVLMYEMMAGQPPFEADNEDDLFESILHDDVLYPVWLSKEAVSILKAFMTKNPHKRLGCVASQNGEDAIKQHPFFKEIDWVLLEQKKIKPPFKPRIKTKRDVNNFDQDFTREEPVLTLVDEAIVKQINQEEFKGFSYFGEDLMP
Briefly: Inhibition of PRKCE.

Molecules are shown by their SMILES. pKd: −log10 of the molar value.

The pKd is the negative decadic logarithm of the Kd, by convention in mol/L. Turning to `C[C@H]1C/C=C/[C@@H](O)[C@@H](O)CC/C=C/c2cc(O)cc(O)c2C(=O)O1` [AIGIALOMYCIN D], the negative logarithm of the Kd (pKd) was 4.92.
